Results: patent US8569247B2 (priority 2009, dated 2013)
Like-named read-outs stand apart in the source and are kept apart here.

Tests used:
CaCo-2 cells [1] = experiment: Cellular uptake of crocin and crocetin in CaCo-2 cells (cellular content); type: in vitro ADME; conditions: for Crocetin (HPLC) concentration in the cells: 10 mg crocetin/100 mL medium; for HPLC peaks in the cells: 10 mg Gardenia extract/100 mL medium
Procedure: (§1) CaCo-2 cells were incubated with 10 mg Gardenia extract and 10 mg crocetin/100 mL medium. The test compounds were dissolved in methanol and then diluted with incubation medium. Incubations were performed at 37° C. for 30, 60 and 120 minutes.
Cells were grown in 75 cm^2 culture-flasks (T75) and sub-cultured after one week (every other day washed with PBS buffer, removed with trypsin and transferred to a new culture flask).
The cells were washed with PBS buffer, incubated with 4 ml medium containing the suspended samples for 30, 60 or 120 minutes.
After the corresponding incubation time, the cells were washed with PBS buffer/MeOH=70/30 and removed using 1 ml of MeOH. Cells were sonicated 3 times for 30 seconds, centrifuged for 10 min and the pellets were discarded. The supernatant was used as sample for HPLC and UV/VIS-analysis.
(§2) An appropriate amount of standard was transferred into a 10 mL flask and dissolved in 3 mL methanol and filled to the mark with water. Dilutions were prepared in mobile phase.
(§3) Quantification was performed by external standardization after linear regression analysis.

[2] = Content of test solution before and after incubation (stability under CaCo-2 test conditions); type: in vitro ADME; conditions: for Area-% Fingerprint of test solution after 120 minutes / Area-% Fingerprint of test solution prior to incubation: Gardenia extract test solution
Procedure: as §1
The content of crocetin related esters and crocetin in the sample used for incubation testing was determined.
Table 7 provides the content of test solution prior to incubation:
Table 8 provides the corresponding data for the test solution obtained after 120 minutes.
as §2, §3

[3] = stated as known property; cited from earlier work
CaCo-2 cells [4] = experiment: CaCo-2 uptake trial extended with gardenia hydrolysate (%-uptake by HPLC/UV peak areas); type: in vitro ADME; conditions: sample 20 mg/100 ml; proportion on overall absorption
Procedure: The tests were performed in replicate and the results are expressed as %-uptake based on peak areas measured by HPLC/UV.

[5] = biological target: human acetylcholinesterase (Homo sapiens, UniProt P22303); experiment: biochemical; type: biochemical; conditions: for inhibition at 500 µg/mL: read-out: Inhibition of AChE activity %; for activity at 500 µg/mL: read-out: AChE activity %
Procedure: Inhibitor solution: 10 mg of the corresponding samples were respectively dissolved in 1 ml methanol.
Chromogen solution: 0.1 M Sodium phosphate buffer (pH=8, NaOH) was mixed with solution A at a ratio of 30:1.
Solution A: 39.6 mg 5,5′-dithio-bis[2-nitrobenzoic acid] and 15.0 mg NaHCO3 were weighed into a 10 ml flask and filled to the mark with 0.1 M Sodium-phosphate buffer (pH=7, NaOH).
Enzyme solution: A solution of human acetylcholinesterase containing 70 IU enzyme activity/ml H2O was prepared.
Substrate solution: 115.7 mg acetylthiocholine-iodide was weighed into a 10 ml flask and filled to the mark with H2O.
10 μl inhibitor solution was mixed with 185 μl chromogen solution and 10 μl enzyme solution. The solution was incubated for 10 minutes at room temperature with shaking. […] substrate solution was added and the increase in absorption at 412 nm was recorded until no more increase was observed (3-5 minutes).

[6] = Solubility in water / aqueous alkaline solution; type: physicochemical; conditions: found by the applicant
[7] = after 120 minutes incubation at 37° C.
[8] = sample 0.50 mg/ml, Neg Control = 0.0
[9] = sample 0.50 mg/ml, Neg Control = 100.0

Chain of human acetylcholinesterase (P22303 32-614): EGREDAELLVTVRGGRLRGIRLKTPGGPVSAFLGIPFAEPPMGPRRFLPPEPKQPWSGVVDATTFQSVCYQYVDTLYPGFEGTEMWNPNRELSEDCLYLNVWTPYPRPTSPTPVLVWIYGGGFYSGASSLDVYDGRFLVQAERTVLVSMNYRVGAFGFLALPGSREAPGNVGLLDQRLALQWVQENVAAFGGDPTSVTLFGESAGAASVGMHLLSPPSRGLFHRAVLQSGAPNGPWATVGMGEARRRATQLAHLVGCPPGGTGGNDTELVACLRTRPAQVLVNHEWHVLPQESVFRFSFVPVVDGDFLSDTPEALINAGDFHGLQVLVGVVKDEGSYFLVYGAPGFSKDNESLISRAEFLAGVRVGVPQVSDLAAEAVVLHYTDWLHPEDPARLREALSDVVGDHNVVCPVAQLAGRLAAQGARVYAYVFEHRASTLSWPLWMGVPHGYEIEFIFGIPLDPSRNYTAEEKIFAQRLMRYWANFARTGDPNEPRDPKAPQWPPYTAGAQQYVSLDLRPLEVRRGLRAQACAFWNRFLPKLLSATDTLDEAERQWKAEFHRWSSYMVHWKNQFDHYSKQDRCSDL

CC(/C=C/C=C(\C)C(=O)O)=C\C=C\C=C(C)\C=C\C=C(/C)C(=O)O [Crocetin, 8,8′-Diapo-ψ,ψ-carotenedioic acid, reference compound]
Crocetin (HPLC) concentration in the cells (CaCo-2 cells [1]; time 0 min): BLD (BLD = <0.01 mg/100 ml) | Crocetin (HPLC) concentration in the cells (CaCo-2 cells [1]; time 30 min): BLD (BLD = <0.01 mg/100 ml) | Crocetin (HPLC) concentration in the cells (CaCo-2 cells [1]; time 60 min): BLD (BLD = <0.01 mg/100 ml) | Crocetin (HPLC) concentration in the cells (CaCo-2 cells [1]; time 120 min): BLD (BLD = <0.01 mg/100 ml) | content of test solution after 120 minutes [2, 7]: 9.77 mg/100 ml | content of test solution prior to incubation ([2]; prior to incubation, incubation medium): 9.82 mg/100 ml | solubility in aqueous alkaline solution [3]: soluble | solubility in water [3]: insoluble in water | % uptake of crocetin (CaCo-2 cells [4]): 0.53% | inhibition at 500 µg/mL [5, 8]: 7.5% | activity at 500 µg/mL [5, 9]: 92.5%

CC(/C=C/C=C(\C)C(=O)O[C@@H]1O[C@H](CO[C@@H]2O[C@H](CO)[C@@H](O)[C@H](O)[C@H]2O)[C@@H](O)[C@H](O)[C@H]1O)=C\C=C\C=C(C)\C=C\C=C(/C)C(=O)O[C@@H]1O[C@H](CO[C@@H]2O[C@H](CO)[C@@H](O)[C@H](O)[C@H]2O)[C@@H](O)[C@H](O)[C@H]1O [Crocin, di-gentiobiose ester of crocetin]
solubility in water [3]: very good water-solubility | activity at 500 µg/mL [5]: 52.7% | inhibition at 500 µg/mL [5]: 47.3%

CCOC(=O)CCC(=O)O [Monoester]
solubility in water [6]: good solubility in water | Inhibition of AChE activity % [5, 8]: 89.2% | AChE activity % [5, 9]: 10.8%

CC(/C=C/C=C(\C)C(=O)O[C@@H]1O[C@H](CO[C@@H]2O[C@H](CO)[C@@H](O)[C@H](O)[C@H]2O)[C@@H](O)[C@H](O)[C@H]1O)=C\C=C\C=C(C)\C=C\C=C(/C)C(=O)O[C@@H]1O[C@H](CO[C@@H]2O[C@H](CO)[C@@H](O)[C@H](O)[C@H]2O)[C@@H](O)[C@H](O)[C@H]1O (relative stereo) [DGTC, digentobiosyl-(trans)crocetin]
HPLC peaks in the cells (CaCo-2 cells [1]; time 0 min): not detected | HPLC peaks in the cells (CaCo-2 cells [1]; time 30 min): not detected | HPLC peaks in the cells (CaCo-2 cells [1]; time 60 min): not detected | HPLC peaks in the cells (CaCo-2 cells [1]; time 120 min): not detected | Area-% Fingerprint of test solution after 120 minutes [2, 7]: 43.4 Area-% | Area-% Fingerprint of test solution prior to incubation ([2]; prior to incubation): 45.3 Area-%

neapolitanosyl-glucosyl-(trans)crocetin [NGTC]
HPLC peaks in the cells (CaCo-2 cells [1]; time 0 min): not detected | HPLC peaks in the cells (CaCo-2 cells [1]; time 30 min): not detected | HPLC peaks in the cells (CaCo-2 cells [1]; time 60 min): not detected | HPLC peaks in the cells (CaCo-2 cells [1]; time 120 min): not detected | Area-% Fingerprint of test solution after 120 minutes [2, 7]: 17.9 Area-% | Area-% Fingerprint of test solution prior to incubation ([2]; prior to incubation): 18.1 Area-%

CC(/C=C/C=C(\C)C(=O)O)=C\C=C\C=C(C)\C=C\C=C(/C)C(=O)O[C@@H]1O[C@H](CO[C@@H]2O[C@H](CO)[C@@H](O)[C@H](O)[C@H]2O)[C@@H](O)[C@H](O)[C@H]1O (relative stereo) [GTC, gentobisyl-(trans)crocetin]
HPLC peaks in the cells (CaCo-2 cells [1]; time 0 min): not detected | HPLC peaks in the cells (CaCo-2 cells [1]; time 30 min): not detected | HPLC peaks in the cells (CaCo-2 cells [1]; time 60 min): not detected | HPLC peaks in the cells (CaCo-2 cells [1]; time 120 min): not detected | Area-% Fingerprint of test solution after 120 minutes [2, 7]: 10.3 Area-% | Area-% Fingerprint of test solution prior to incubation ([2]; prior to incubation): 9.7 Area-%

CC(=C/C=C/C=C(C)/C=C/C=C(/C)C(=O)O[C@@H]1O[C@H](CO[C@@H]2O[C@H](CO)[C@@H](O)[C@H](O)[C@H]2O)[C@@H](O)[C@H](O)[C@H]1O)/C=C/C=C(\C)C(=O)O[C@@H]1O[C@H](CO[C@@H]2O[C@H](CO)[C@@H](O)[C@H](O)[C@H]2O)[C@@H](O)[C@H](O)[C@H]1O (relative stereo) [DGCC, digentobiosyl-(cis)crocetin]
HPLC peaks in the cells (CaCo-2 cells [1]; time 0 min): not detected | HPLC peaks in the cells (CaCo-2 cells [1]; time 30 min): not detected | HPLC peaks in the cells (CaCo-2 cells [1]; time 60 min): not detected | HPLC peaks in the cells (CaCo-2 cells [1]; time 120 min): not detected | Area-% Fingerprint of test solution after 120 minutes [2, 7]: 15.2 Area-% | Area-% Fingerprint of test solution prior to incubation ([2]; prior to incubation): 16.6 Area-%
